Test results taken from patent publication US7771978B2, “β1,4mannosyltransferases” (priority 2003, dated 2010).
Like-named read-outs stand apart in the source and are kept apart here.

Target: T1, Egghead β1-4-mannosyltransferase (Drosophila melanogaster, UniProt O01346)
T1 construct: a secreted version of egghead was prepared as described for the full length construct; made in house; host or cells: baculovirus-infected Sf9 and High Five insect cells (microsomal fractions)
T1 sequence (O01346 1-457): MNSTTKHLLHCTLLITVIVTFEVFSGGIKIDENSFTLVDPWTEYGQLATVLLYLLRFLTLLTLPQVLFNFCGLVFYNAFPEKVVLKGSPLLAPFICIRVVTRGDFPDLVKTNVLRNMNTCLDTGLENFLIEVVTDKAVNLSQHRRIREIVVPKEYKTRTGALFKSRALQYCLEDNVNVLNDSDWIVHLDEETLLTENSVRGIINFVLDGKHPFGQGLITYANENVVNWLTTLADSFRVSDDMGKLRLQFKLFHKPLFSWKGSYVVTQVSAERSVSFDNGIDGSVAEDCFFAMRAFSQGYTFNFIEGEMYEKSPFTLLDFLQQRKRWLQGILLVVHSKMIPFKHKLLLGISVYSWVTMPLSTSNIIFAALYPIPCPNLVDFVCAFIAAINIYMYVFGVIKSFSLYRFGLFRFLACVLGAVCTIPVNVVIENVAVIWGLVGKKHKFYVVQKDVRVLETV
Test: Egghead mannosyltransferase enzyme assay with soluble acceptor and donor substrates (microsomal fractions)
Format: biochemical
Conditions: for acceptor substrate activity (in words): microsomal fractions of High Five cells; for Substrate specificities of Egghead β1-4-mannosyltransferase, activity at 1 mM: acceptor substrate 1 mM; for Substrate specificities of Egghead β1-4-mannosyltransferase, activity at 1 mM / Substrate specificities of Egghead β1-4-mannosyltransferase, activity at 5 mM: microsomes of pVL-Egghead infected High Five cells, GalNAc-T4 background subtracted; for Substrate specificities of Egghead β1-4-mannosyltransferase, activity at 5 mM: acceptor substrate 5 mM; for effect of divalent cation salt on enzyme activity: addition of 5 to 10 mM; for donor substrate utilisation by egghead (in words): donor sugar nucleotides tested under similar conditions
Procedure: Initial assays of activity included a screen with high concentrations of monosaccharide substrates and different donor substrates.
An expression construct of the full coding region of egghead was prepared by RT-PCR using D. melanogaster mRNA and the sense primer Egh001 (5′-[…]-3′, SEQ ID NO: 4) with a BglII restriction site and the anti-sense primer Egh002 (5′-[…]-3′, SEQ ID NO: 5) with a XbaI restriction site. The resulting 1.1 Kb fragment was cloned into the BglII/XbaI sites of pVL1393 (PharMingen) and pVL1393-MYC. Furthermore an expression construct for a secreted version of egghead was prepared as described for the full length construct but using sense primer Egh003 (5′[…]-3′, SEQ ID NO: 6) with a BglII restriction site and the anti-sense primer Egh002. The resulting 1 Kb fragment was cloned into pAcGP67 Baculo-virus expression vector. Expression constructs pVL-egghead-full and pVL-egghead-Myc-full and pAcGP67-egghead-sol were co-transfected with Baculo-Gold™ DNA (Pharmingen) in Sf9 cells as described (12). Control constructs included pVL-GalNAc-T4-full (8) and pVL-brainiac-full (7). Standard enzyme assays were performed in 50 μl reaction mixtures containing 25 mM HEPES-KOH (pH 7.4), 10 mM MgCl2, 0.1% n-octylgalactoside (Sigma), and 100 μM GDP-[^14C]-Man (2,000 cpm/nmol) (Amersham), and varying concentration of acceptor substrates (purchased from Fluka, Merck, Sigma and Toronto Research Chemicals Inc; see Table I for structures). Assays with brainiac were carried out in the same reaction mixture except for addition of UDP-[^14C]GlcNAc (3,000 cpm/nmol) (Amersham) and MnCl2. Enzyme sources were microsomal fractions of baculo-virus infected Sf9 and High Five™ cells prepared essentially as described by Weis et al. (1998). Briefly, cells were lysed in lysis buffer (25 mM Tris-HCl pH 7.4, 250 mM Sucrose), after incubation 30 min on ice cells were homogenized and lysate centrifuged at 1000×G. Glycerol were added to 20% and membrane pellets were obtained by 100.000×g. Pellets were used at 10 mg/ml (Protein concentration determined by BCA, Pierce). Reaction products of soluble acceptors were quantified by chromatography on Dowex AG1-X8 (Sigma). Assays with glycosphingolipids included 5 mM 2-Acetamido-2-deoxy-D-Glucono-1,5-lactone (inhibitor of hexosaminidase activity), and products were purified on octadecyl-silica cartridges (Supelco) and analyzed by high performance thin-layer chromatography followed by autoradiography.

[1] = acceptor substrate, GDP-Man donor, read-out: apparent Km of acceptor substrate

| Molecule | Substrate specificities of Egghead β1-4-mannosyltransferase, activity at 1 mM (GDP-Man donor) | Substrate specificities of Egghead β1-4-mannosyltransferase, activity at 5 mM (GDP-Man donor) | other results |
| --- | --- | --- | --- |
| O=C[C@H](O)[C@@H](O)[C@H](O)[C@H](O)CO [D-Glucose] |  |  | acceptor substrate activity (in words) (GDP-Man donor): marked increase in GDP-Man transferase activity |
| CCCCCCCCO[C@@H]1O[C@H](CO)[C@H](O)[C@H](O)[C@H]1O [n-octylgalactoside] |  |  | effect of n-octylgalactoside on egghead activity (3.4 mM (0.1%), microsomal membranes): activated |
| Cc1cc(=O)oc2cc(O[C@@H]3O[C@H](CO)[C@@H](O)[C@H](O)[C@@H]3O)ccc12 [Manβ1-MeUmb] | 97 nmol/h/mg | 171.4 nmol/h/mg |  |
| [Ca+2].[Cl-].[Cl-] [CaCl2] |  |  | effect of divalent cation salt on enzyme activity: had no effect |
| Cc1cc(=O)oc2cc(O[C@@H]3O[C@H](CO)[C@H](O)[C@H](O)[C@H]3O)ccc12 [Galβ1-MeUmb] | 0.0 nmol/h/mg |  |  |
| CCCCCCCCO[C@@H]1O[C@H](CO)[C@@H](O[C@@H]2O[C@H](CO)[C@@H](O)[C@H](O)[C@@H]2O)[C@H](O)[C@H]1O [Manβ1-4Glcβ1-n-Octyl] | 0.0 nmol/h/mg | 0.0 nmol/h/mg | acceptor substrate activity (in words) (GDP-Man donor): no activity |
| CC(=O)N[C@H]1C(O)O[C@H](CO)[C@@H](O[C@@H]2O[C@H](CO)[C@@H](O)[C@H](O)[C@@H]2O)[C@@H]1O (some centres unmarked) [Manβ1-4GlcNAc] | 0.0 nmol/h/mg | 0.0 nmol/h/mg | acceptor substrate activity (in words) (GDP-Man donor): no activity |
| CC(=O)N[C@H]1[C@H](Oc2ccc3c(C)cc(=O)oc3c2)O[C@H](CO)[C@@H](O)[C@@H]1O [GlcNAcβ1-MeUmb] | 0.2 nmol/h/mg | 0.0 nmol/h/mg |  |
| CC(=O)N[C@H]1[C@@H](OP(=O)(O)OP(=O)(O)OC[C@H]2O[C@@H](n3ccc(=O)[nH]c3=O)[C@H](O)[C@@H]2O)O[C@H](CO)[C@H](O)[C@@H]1O [UDP-GalNAc] |  |  | donor substrate utilisation by egghead (in words): did not utilize |
| CC(=O)N[C@H]1[C@H](Oc2ccc([N+](=O)[O-])cc2)O[C@H](CO)[C@H](O)[C@@H]1O [GalNAcβ1-pNph] | 0.0 nmol/h/mg |  |  |
| CC(=O)N[C@H]1[C@@H](OP(=O)(O)OP(=O)(O)OC[C@H]2O[C@@H](n3ccc(=O)[nH]c3=O)[C@H](O)[C@@H]2O)O[C@H](CO)[C@@H](O)[C@@H]1O [UDP-GlcNAc] |  |  | donor substrate utilisation by egghead (in words): did not utilize |
| CCCCCCCCO[C@@H]1O[C@H](CO)[C@H](O)[C@H](O)[C@H]1O [Galβ1-n-Octyl] | 0.0 nmol/h/mg | 0.0 nmol/h/mg |  |
| CCCCCCCCOC1O[C@H](CO)[C@@H](O)[C@H](O)[C@H]1O (stereo partly drawn) [Glcβ1-n-Octyl, n-octyl-β-glucoside] |  |  | Km [1]: 670 ± 80 µM |
| O=[N+]([O-])c1ccc(O[C@@H]2O[C@H](CO)[C@@H](O)[C@H](O)[C@H]2O)cc1 [Glcβ1-pNph] | 378.6 nmol/h/mg | 561.4 nmol/h/mg | Km [1]: 1100 ± 300 µM |
| Cc1cc(=O)oc2cc(O[C@@H]3O[C@H](CO)[C@@H](O)[C@H](O)[C@H]3O)ccc12 [Glcβ1-MeUmb] | 330.0 nmol/h/mg | 611.4 nmol/h/mg |  |
| CC(=O)N[C@H]1[C@H](Oc2ccc([N+](=O)[O-])cc2)O[C@H](CO)[C@@H](O)[C@@H]1O [GlcNAcβ1-pNph] | 0.0 nmol/h/mg |  |  |
| O=[N+]([O-])c1ccc(O[C@@H]2O[C@H](CO)[C@@H](O)[C@H](O)[C@@H]2O)cc1 [Manβ1-pNph] | 98.6 nmol/h/mg | 182.9 nmol/h/mg | Km [1]: 2300 ± 500 µM |
| [2H]C([2H])([2H])C([2H])([2H])C([2H])([2H])C([2H])([2H])C([2H])([2H])C([2H])([2H])C([2H])([2H])C([2H])([2H])OC1([2H])O[C@]([2H])(C([2H])([2H])O)[C@@]([2H])(O)[C@]([2H])(O)[C@@]1([2H])O (stereo partly drawn) [Glcβ1-n-Octyl, n-octyl-β-glucoside] | 442.8 nmol/h/mg | 732.6 nmol/h/mg |  |
| Nc1nc2c(ncn2[C@@H]2O[C@H](COP(=O)(O)OP(=O)(O)O[C@H]3O[C@H](CO)[C@@H](O)[C@H](O)[C@@H]3O)[C@@H](O)[C@H]2O)c(=O)[nH]1 [GDP-Man, GDP-mannose] |  |  | Km (donor substrate, with n-octyl-β-Glc acceptor substrate, read-out: apparent Km for GDP-Man): 58 ± 6.2 µM; donor substrate utilisation by egghead (in words): strict donor substrate specificity |
| [Cl-].[Cl-].[Mg+2] [MgCl2] |  |  | effect of divalent cation salt on enzyme activity: activated |
| Cc1cc(=O)oc2cc(O[C@@H]3O[C@H](CO)[C@@H](O)[C@H](O)[C@H]3O)ccc12 [Glcα1-MeUmb] | 1.2 nmol/h/mg | 12.9 nmol/h/mg |  |
| C[C@@H]1O[C@H](Oc2ccc([N+](=O)[O-])cc2)[C@@H](O)[C@H](O)[C@@H]1O [Fucβ1-pNph] | 0.0 nmol/h/mg | 0.0 nmol/h/mg |  |
| Cc1cc(=O)oc2cc(O[C@@H]3OC[C@@H](O)[C@H](O)[C@H]3O)ccc12 [Xylβ1-MeUmb] | 0.0 nmol/h/mg |  |  |
| [Cl][Mn][Cl] [MnCl2] |  |  | effect of divalent cation salt on enzyme activity: activated |
| O=[N+]([O-])c1ccc(O[C@@H]2O[C@H](CO)[C@H](O)[C@H](O)[C@H]2O)cc1 [Galβ1-pNph] | 0.0 nmol/h/mg |  |  |
| C[C@H](CCC(=O)NCCC[N+](C)(C)CCCS(=O)(=O)[O-])[C@H]1CC[C@H]2[C@@H]3[C@H](O)C[C@@H]4C[C@H](O)CC[C@]4(C)[C@H]3C[C@H](O)[C@]12C [CHAPS] |  |  | effect of CHAPS on egghead activity (concentration not given, to a lesser extent than n-octylgalactoside): activated |
| CCCCCCCCO[C@H]1O[C@H](CO)[C@@H](O)[C@H](O)[C@H]1O [Glcα1-n-Octyl] | 3.6 nmol/h/mg | 6.5 nmol/h/mg |  |
| Triton X-100 |  |  | effect of detergent on egghead activity (detergent at 0.1%, microsomal membranes): inhibited |
| OC[C@H]1O[C@H](OCc2ccccc2)[C@@H](O)[C@@H](O)[C@@H]1O [Manα-1-Bzl] | 0.0 nmol/h/mg |  |  |
| egghead: GDP-D-mannose: β-D-glucose-R 4-β-D-mannosyltransferase, SEQ ID NO. 1 (protein, Drosophila melanogaster) MNSTTKHLLHCTLLITVIVTFEVFSGGIKIDENSFTLVDPWTEYGQLATVLLYLLRFLTLLTLPQVLFNFCGLVFYNAFPEKVVLKGSPLLAPFICIRVVTRGDFPDLVKTNVLRNMNTCLDTGLENFLIEVVTDKAVNLSQHRRIREIVVPKEYKTRTGALFKSRALQYCLEDNVNVLNDSDWIVHLDEETLLTENSVRGIINFVLDGKHPFGQGLITYANENVVNWLTTLADSFRVSDDMGKLRLQFKLFHKPLFSWKGSYVVTQVSAERSVSFDNGIDGSVAEDCFFAMRAFSQGYTFNFIEGEMYEKSPFTLLDFLQQRKRWLQGILLVVHSKMIPFKHKLLLGISVYSWVTMPLSTSNIIFAALYPIPCPNLVDFVCAFIAAINIYMYVFGVIKSFSLYRFGLFRFLACVLGAVCTIPVNVVIENVAVIWGLVGKKHKFYVVQKDVRVLETV |  |  | pH optimum of egghead activity (microsomal membranes): 7-8 pH |
